For 34 compounds, IC50 results are on record in patent US9255090B2, “Heterocyclyl derivatives and their use as prostaglandin D2 receptor modulators” (Actelion Pharmaceuticals Ltd., priority 2012, dated 2016).

For the assay, the target named is hCRTH2 receptor (Homo sapiens (Human), UniProt Q9Y5Y4). Put plainly: hCRTH2 receptor membranes radioligand (3H-PGD2) displacement assay. Conditions: 3H-PGD2 radioligand displacement, HEK293-hCRTH2 membranes. The assay is classed as binding. In outline:
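Compound was first mixed with buffer, then 3H-PGD2 was added at 2.5 nM, and the reaction was started with hCRTH2 membranes from HEK293 cells at 20 μg/well. After 90 min at room temperature, mixtures were filtered and washed with ice-cold buffer, and retained radioactivity was counted.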

Molecules are shown by their SMILES.

Chain of hCRTH2 receptor (Q9Y5Y4 whole entry): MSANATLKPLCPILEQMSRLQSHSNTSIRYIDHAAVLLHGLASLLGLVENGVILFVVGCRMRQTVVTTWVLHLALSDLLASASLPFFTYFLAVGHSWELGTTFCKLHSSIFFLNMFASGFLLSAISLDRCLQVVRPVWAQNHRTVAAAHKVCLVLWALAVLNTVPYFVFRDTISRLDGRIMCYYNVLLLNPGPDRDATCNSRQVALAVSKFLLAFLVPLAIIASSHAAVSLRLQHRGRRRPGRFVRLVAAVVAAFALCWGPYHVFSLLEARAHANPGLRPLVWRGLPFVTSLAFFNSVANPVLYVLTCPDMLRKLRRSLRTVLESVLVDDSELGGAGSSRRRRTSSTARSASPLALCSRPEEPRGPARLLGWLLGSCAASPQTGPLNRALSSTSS

Usually IC50 stands for the point on the concentration scale where inhibition reaches its midpoint. With `COc1ccc(CC(=O)O)cc1-c1ccc(F)c2c1CN(C(=O)CC1(c3ccc(F)cc3)CCC1)CC2` [Example 251, [3-(5-Fluoro-2-{2-[1-(4-fluoro-phenyl)-cyclobutyl]-acetyl}-1,2,3,4-tetrahydro-isoquinolin-8-yl)-4-methoxy-phenyl]-acetic acid], the half-maximal inhibitory concentration (IC50) came to 414 nM.

For `COc1ccc(CC(=O)O)cc1-c1ccc(F)c2c1CN(C(=O)[C@@H]1C[C@H]1c1ccc(Cl)cc1)CC2` [Example 64, (3-{2-[(1R,2R)-2-(4-Chloro-phenyl)-cyclopropanecarbonyl]-5-fluoro-1,2,3,4-tetrahydro-isoquinolin-8-yl}-4-methoxy-phenyl)-acetic acid], the IC50 was 1.12 nM.

In turn, `COc1ccc(CC(=O)O)cc1-c1ccc(F)c2c1CN(C(=O)C(C)Cc1cccnc1)CC2` (racemic) [Example 343] showed an IC50 of 291 nM.

`COc1ccc(CC(=O)O)cc1-c1ccc(F)c2c1CN(C(=O)OCc1cncnc1)CC2` [Example 152, 8-(5-Carboxymethyl-2-methoxy-phenyl)-5-fluoro-3,4-dihydro-1H-isoquinoline-2-carboxylic acid pyrimidin-5-ylmethyl ester] returned a 50% inhibitory concentration (IC50) of 34.1 nM.

As to `O=C(O)Cc1ccc(Cl)c(-c2ccc(F)c3c2CN(C(=O)OCc2ccccc2)CC3)c1` [Example 9, 8-(5-Carboxymethyl-2-chloro-phenyl)-5-fluoro-3,4-dihydro-1H-isoquinoline-2-carboxylic acid benzyl ester], the half-inhibitory concentration (IC50) stood at 12.8 nM.

Compound `O=C(O)COc1cc(Cl)cc(-c2ccc(F)c3c2CN(C(=O)OCc2ccccc2)CC3)c1` [Example 144, 8-(3-Carboxymethoxy-5-chloro-phenyl)-5-fluoro-3,4-dihydro-1H-isoquinoline-2-carboxylic acid benzyl ester] gave a half-inhibitory concentration (IC50) of 86.2 nM.

In turn, `COc1ccc(CC(=O)O)cc1-c1ccc(F)c2c1CN(C(=O)/C=C/c1ccccc1)CC2` [Example 85, (3-{5-Fluoro-2-[(E)-(3-phenyl-acryloyl)]-1,2,3,4-tetrahydro-isoquinolin-8-yl}-4-methoxy-phenyl)-acetic acid] registered an IC50 of 35.8 nM.

Compound `CCOc1ccc(CC(=O)O)cc1-c1ccc(F)c2c1CN(C(=O)NCc1ccccc1OC)CC2` [Example 437, {4-Ethoxy-3-[5-fluoro-2-(2-methoxy-benzylcarbamoyl)-1,2,3,4-tetrahydro-isoquinolin-8-yl]-phenyl}-acetic acid] gave a half-maximal inhibitory concentration (IC50) of 10.9 nM.

`CCOc1cc(CC(=O)O)ccc1-c1ccc(F)c2c1CN(C(=O)CC1CC(C)(C)Oc3ccccc31)CC2` (racemic) [Example 323] returned a half-maximal inhibitory concentration (IC50) of 1.8 nM.

The compound `COc1ccc(CC(=O)O)cc1-c1ccc(F)c2c1CN(C(=O)CCc1ncccn1)CC2` [Example 93, {3-[5-Fluoro-2-(3-pyrimidin-2-yl-propionyl)-1,2,3,4-tetrahydro-isoquinolin-8-yl]-4-methoxy-phenyl}-acetic acid] showed an IC50 of 690 nM.

The compound `COc1ccc(CC(=O)O)cc1-c1ccc(Cl)c2c1CN(C(=O)[C@@H]1C[C@H]1c1ccccc1F)CC2` [Example 70, (3-{5-Chloro-2-[(1R,2R)-2-(2-fluoro-phenyl)-cyclopropanecarbonyl]-1,2,3,4-tetrahydro-isoquinolin-8-yl}-4-methoxy-phenyl)-acetic acid] registered a 50% inhibitory concentration (IC50) of 1.16 nM.

As to `CC(C)c1cc(CC(=O)O)ccc1-c1ccc(F)c2c1CN(C(=O)OCc1ccccc1)CC2` [Example 216, 8-(4-Carboxymethyl-2-isopropyl-phenyl)-5-fluoro-3,4-dihydro-1H-isoquinoline-2-carboxylic acid benzyl ester], the IC50 stood at 19.4 nM.

`COc1ccc(CC(=O)O)cc1-c1ccc(F)c2c1CN(C(=O)COC(C)(C)C)CC2` [Example 47, {3-[2-(2-tert-Butoxy-acetyl)-5-fluoro-1,2,3,4-tetrahydro-isoquinolin-8-yl]-4-methoxy-phenyl}-acetic acid] yielded an IC50 of 551 nM.

In the case of `CCOc1ccc(CC(=O)O)cc1-c1ccc(F)c2c1CN(C(=O)/C=C/c1ccn(C)n1)CC2` [Example 337, (4-Ethoxy-3-{5-fluoro-2-[(E)-3-(1-methyl-1H-pyrazol-3-yl)-acryloyl]-1,2,3,4-tetrahydro-isoquinolin-8-yl}-phenyl)-acetic acid], the IC50 is 30.4 nM.

For `O=C(O)Cc1cc(Cl)cc(-c2ccc(F)c3c2CN(C(=O)OCc2ccccc2)CC3)c1` [Example 19, 8-(3-Carboxymethyl-5-chloro-phenyl)-5-fluoro-3,4-dihydro-1H-isoquinoline-2-carboxylic acid benzyl ester], the IC50 amounted to 20.2 nM.

Turning to `O=C(O)Cc1ccc(OC2CC2)c(-c2ccc(F)c3c2CN(C(=O)OCc2ccccc2)CC3)c1` [Example 430, 8-(5-Carboxymethyl-2-cyclopropoxy-phenyl)-5-fluoro-3,4-dihydro-1H-isoquinoline-2-carboxylic acid benzyl ester], the concentration for half-maximal inhibition (IC50) is 14.9 nM.

In the case of `COc1ccc(CC(=O)O)cc1-c1ccc(F)c2c1CCN(C(=O)CCc1ccccc1)C2` [Example 101, {3-[8-Fluoro-2-(3-phenyl-propionyl)-1,2,3,4-tetrahydro-isoquinolin-5-yl]-4-methoxy-phenyl}-acetic acid], the concentration for half-maximal inhibition (IC50) was 64.7 nM.

As for `COc1cc(OCC(=O)O)ccc1-c1ccc(F)c2c1CN(C(=O)OCc1ccccc1)CC2` [Example 424, 8-(4-Carboxymethoxy-2-methoxy-phenyl)-5-fluoro-3,4-dihydro-1H-isoquinoline-2-carboxylic acid benzyl ester], the 50% inhibitory concentration (IC50) is 444 nM.

Compound `COc1ccc(CC(=O)O)cc1-c1ccc(F)c2c1CN(C(=O)CCN1CCCc3ccccc31)CC2` [Example 53, {3-[2-(3-3,4-Dihydro-2H-quinolin-1-yl-propionyl)-5-fluoro-1,2,3,4-tetrahydro-isoquinolin-8-yl]-4-methoxy-phenyl}-acetic acid] showed an IC50 of 4.49 nM.

Turning to `CCOc1ccc(CC(=O)O)cc1-c1ccc(F)c2c1CN(C(=O)CC1CCc3ccccc31)CC2` (racemic) [Example 219], the concentration for half-maximal inhibition (IC50) is 9.1 nM.

Regarding `CC(CC(=O)N1CCc2c(F)ccc(-c3ccc(CC(=O)O)cc3OCC(F)(F)F)c2C1)c1ccccn1` (racemic) [Example 288], the half-maximal inhibitory concentration (IC50) was 10 nM.

`COc1ccc(CC(=O)O)cc1-c1ccc(F)c2c1CN(C(=O)NCc1cccc(F)c1)CC2` [Example 131, {3-[5-Fluoro-2-(3-fluoro-benzylcarbamoyl)-1,2,3,4-tetrahydro-isoquinolin-8-yl]-4-methoxy-phenyl}-acetic acid] had an IC50 of 60.1 nM.

`COc1ccc(C(C)C(=O)O)cc1-c1ccc(F)c2c1CN(C(=O)[C@@H]1C[C@H]1c1ccccc1)CC2` (mixture of isomers) [Example 120, (±)-2-{3-[5-Fluoro-2-((1R,2R)-2-phenyl-cyclopropanecarbonyl)-1,2,3,4-tetrahydro-isoquinolin-8-yl]-4-methoxy-phenyl}-propionic acid] came in with a concentration for half-maximal inhibition (IC50) of 8.56 nM.

The compound `COc1ccc(CC(=O)O)cc1-c1ccc(F)c2c1CN(C(=O)Cc1noc3ccccc13)CC2` [Example 121, {3-[2-(2-Benzo[d]isoxazol-3-yl-acetyl)-5-fluoro-1,2,3,4-tetrahydro-isoquinolin-8-yl]-4-methoxy-phenyl}-acetic acid] displayed a concentration for half-maximal inhibition (IC50) of 47.2 nM.

Consider `COc1ccc(CC(=O)O)cc1-c1ccc(F)c2c1CN(C(=O)[C@@H]1CCCc3ccccc31)CC2` [Example 269, {3-[5-Fluoro-2-((R)-1,2,3,4-tetrahydro-naphthalene-1-carbonyl)-1,2,3,4-tetrahydro-isoquinolin-8-yl]-4-methoxy-phenyl}-acetic acid], for which the concentration for half-maximal inhibition (IC50) is 95.7 nM.

As for `COc1ccc(CC(=O)O)cc1-c1cccc2c1CN(C(=O)OCc1ccccc1)CC2` [Example 170, 8-(5-Carboxymethyl-2-methoxy-phenyl)-3,4-dihydro-1H-isoquinoline-2-carboxylic acid benzyl ester], the half-maximal inhibitory concentration (IC50) came out at 110 nM.

`O=C(O)COc1ccc(F)cc1-c1cccc2c1CN(C(=O)OCc1ccccc1)CC2` [Example 173, 8-(2-Carboxymethoxy-5-fluoro-phenyl)-3,4-dihydro-1H-isoquinoline-2-carboxylic acid benzyl ester] returned a half-inhibitory concentration (IC50) of 91.4 nM.

`CCOc1cc(CC(=O)O)ccc1-c1ccc(F)c2c1CN(C(=O)NCc1ccccn1)CC2` [Example 448, (3-Ethoxy-4-{5-fluoro-2-[(pyridin-2-ylmethyl)-carbamoyl]-1,2,3,4-tetrahydro-isoquinolin-8-yl}-phenyl)-acetic acid]: the half-maximal inhibitory concentration (IC50) is 9.2 nM.

Compound `O=C(O)COc1cccc(-c2ccc(F)c3c2CN(C(=O)OCc2ccccc2)CC3)c1` [Example 175, 8-(3-Carboxymethoxy-phenyl)-5-fluoro-3,4-dihydro-1H-isoquinoline-2-carboxylic acid benzyl ester] returned an IC50 of 117 nM.

For `CCOc1ccc(CC(=O)O)cc1-c1ccc(F)c2c1CN(C(=O)NCc1ccc(F)cc1)CC2` [Example 434, {4-Ethoxy-3-[5-fluoro-2-(4-fluoro-benzylcarbamoyl)-1,2,3,4-tetrahydro-isoquinolin-8-yl]-phenyl}-acetic acid], the half-inhibitory concentration (IC50) was determined as 0.7 nM.

For `CCOc1cc(CC(=O)O)ccc1-c1ccc(F)c2c1CN(C(=O)CC(CC)c1ccccn1)CC2` (racemic) [Example 313], the IC50 was 7.8 nM.

`CCOc1cc(CC(=O)O)ccc1-c1ccc(F)c2c1CN(C(=O)NCc1ccccc1OC)CC2` [Example 445, {3-Ethoxy-4-[5-fluoro-2-(2-methoxy-benzylcarbamoyl)-1,2,3,4-tetrahydro-isoquinolin-8-yl]-phenyl}-acetic acid] showed an IC50 of 2.5 nM.

The compound `COc1cc(CC(=O)O)cc(OC)c1-c1ccc(F)c2c1CN(C(=O)OCc1ccccc1)CC2` [Example 218, 8-(4-Carboxymethyl-2,6-dimethoxy-phenyl)-5-fluoro-3,4-dihydro-1H-isoquinoline-2-carboxylic acid benzyl ester] showed an IC50 of 1.7 nM.

`CCOc1ccc(CC(=O)O)cc1-c1ccc(F)c2c1CN(C(=O)CC(C)c1ccccc1OC)CC2` (racemic) [Example 282] came in with an IC50 of 2.2 nM.
